Holding throughout (assay): growth of human tumour cells (NCI), 48 h
Test [1] has as its system 786-0 renal.
Test [2] deals with K-562 leukemia.
Test [3] relates to LXFL 529 NSCLC.
The subject of test [4] is SK-MEL-2 melanoma.
For test [5], the system named is SK-MEL-28 melanoma.
For test [6], the system named is SK-OV-3 ovarian.
Test [7] has as its system SNB-78 CNS.
The test system of test [8] is TK-10 renal.
The test system of test [9] is UACC-257 melanoma.

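Five compound concentrations were applied to cells in 96-well plates for 48 hours; endpoints were derived by simple linear interpolation of the resulting dose-response curve. The concentration for full growth arrest is given as TGI.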

On to `Cc1ccc(C)c(NC(=O)C(=O)CC(=O)C2CCOC2=O)c1` (stereo not given), for which the TGI in test [1], in test [2], in [3], in test [4], in test [5] and in [6] was above 100 µM each time. Also, the TGI in test [7], in test [8] and in [9] was above 100 µM in each case.
As to `O=C1c2ccccc2C2(O)Nc3cc(O)ccc3C12O` (stereo not given), the TGI in [1], in test [2], in test [3], in test [4], in [5] and in test [6] was above 100 µM in each case. Further, the TGI in test [7] and in [8] was above 100 µM each time.
`COc1ccc(/C(=N/NC(N)=O)C2(O)C(=O)Nc3ccc([N+](=O)[O-])cc32)cc1` (stereo not given): the TGI in [1] was 30.2 µM; in test [2] it was 58.8 µM; in [3], 35.9 µM; in test [4], 40.2 µM; in test [5], 36.9 µM; in test [6], above 100 µM. Further, the TGI in test [7] came out at 34.7 µM; in test [9] it was 39.4 µM.
Turning to `CC[P+](C)(Cc1ccccc1)c1ccccc1` (stereo not given), the TGI in [1], in test [2], in test [3], in test [4], in test [5] and in [6] was above 100 µM in each case. The TGI in [7], in test [8] and in test [9] was above 100 µM in each case.
`C#CCC[C@@H]1O[C@@]1(C)CC/C=C(\C)CC/C=C/C=O`: the TGI was above 100 µM in test [1]; 54 µM in test [2]; 51.1 µM in test [3]; above 100 µM in test [4]; above 100 µM in [6]; 77.3 µM in test [7]. Further, in [9], the TGI came to 69.7 µM.
On to `CC1=C(C(=O)NCc2ccccc2)C(c2ccc(C3C(C(=O)NCc4ccccc4)=C(C)NC(C)=C3C(=O)NCc3ccccc3)cc2)C(C(=O)NCc2ccccc2)=C(C)N1`, for which the TGI in [1] was 28.9 µM; in test [2], above 100 µM; in [3] it was 15.5 µM; in [4], 49.9 µM; in [5], 25.2 µM; in test [7] it was 27.1 µM. In addition, the TGI came out at 37.8 µM in [8] and 32.5 µM in [9].
As to `Nc1nc(CCC(=O)Nc2cccc(C(F)(F)F)c2)cc(-c2cccc3ccccc23)n1`, the TGI in [1], in test [2], in test [3], in [4], in test [5] and in test [6] was above 100 µM each time. For the same compound, the TGI in [7], in test [8] and in test [9] was above 100 µM throughout.
Consider `CN(C)c1ccc2c(c1)C(=O)N(OS(=O)(=O)c1ccc([N+](=O)[O-])cc1)C2=O`, for which the TGI in test [1] is 47.9 µM; in [2], above 100 µM; in [3], 37 µM; in test [4], 87 µM; in [5], 63.9 µM; in test [6], above 100 µM. Further, the TGI in [7] is 73.8 µM; in test [8], above 100 µM; in [9] it was 58.8 µM.
Turning to `CCOc1ccccc1NC(=O)CCC(=O)OC`, the TGI is above 100 µM in [1]; above 87.8 µM in test [2]; above 100 µM in test [3]; above 100 µM in test [4]; above 100 µM in test [5]; above 100 µM in test [6]. Besides, the TGI in test [7], in test [8] and in test [9] was above 100 µM in each case.
For the compound `N#C/C(=C\c1ccccc1O)C(N)=O`, the TGI in [1], in test [2], in [3], in test [4], in test [5] and in test [6] was above 100 µM throughout. Further, the TGI in [7], in [8] and in test [9] was above 100 µM in each case.
For `Cc1ccc(C(=O)O/N=C2/CCCC/C2=C\c2ccccc2)cc1`, the TGI is above 100 µM in test [1]; 38.6 µM in test [2]; 30.9 µM in test [3]; above 100 µM in test [4]; 65.3 µM in [5]; above 100 µM in test [6]. In addition, the values for the TGI in [7], in test [8] and in [9] were 53.4 µM, above 100 µM and above 100 µM, respectively.
Regarding `CCC1(C)NN=c2s/c(=C/c3ccc(OC)cc3)c(=O)n2N1` (stereo not given), the TGI in test [1], in test [2], in [3], in test [4], in [5] and in test [6] was above 100 µM each time. Moreover, the TGI in [7] and in [8] was above 100 µM in each case.
On to `O=C(O)c1ccccc1Cc1ccco1`, for which the TGI in [1], in test [2], in test [3], in test [4], in test [6] and in test [7] was above 100 µM throughout. Also, the TGI in test [8] and in [9] was above 100 µM each time.

The record behind these values is PubChem BioAssay (NCI).
